What was measured:
Test in all cases: relative viability (nuclei count vs DMSO), 5 days (fraction); higher = more cells survive
Ricolinostat + OSI-027 = compound: O=C(CCCCCCNC(=O)c1cnc(N(c2ccccc2)c2ccccc2)nc1)NO [Ricolinostat] + COc1cccc2cc(-c3nc([C@H]4CC[C@H](C(=O)O)CC4)n4ncnc(N)c34)[nH]c12 [OSI-027] (partner 0.5 µM)
In short: (§1)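 Lung cancer cell lines in 1536-well plates were dosed by pin tool the day after seeding, either with one drug alone or with a fixed anchor-drug dose plus five library-drug doses (not always all listed) in √10 steps. After 5 days, cells were fixed and their nuclei stained in one step (final 0.05% Triton X-100, 1% formaldehyde, 1 ug/ml Hoechst), then counted on 4× images. Relative viability is the nuclei count in treated wells divided by that in vehicle wells. Values are medians of duplicate plates.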

[1] = compound: C1=CC=C(C(=C1)C2=CC=C(C=C2)C3=CSC4=C3C(=C(C(=O)N4)C#N)O)O + CC(C)C[C@H](NC(=O)[C@H](Cc1ccccc1)NC(=O)c1cnccn1)B(O)O [Bortezomib] (partner 0.002 µM)
In short: as §1

TGX 221 + Linsitinib = compound: CC1=CN2C(=O)C=C(N=C2C(=C1)C(C)NC3=CC=CC=C3)N4CCOCC4 [TGX 221] + C[C@]1(O)C[C@@H](c2nc(-c3ccc4ccc(-c5ccccc5)nc4c3)c3c(N)nccn32)C1 [Linsitinib] (partner 1 µM)
In short: as §1

[2] = compound: C1=CC=C(C(=C1)C2=CC=C(C=C2)C3=CSC4=C3C(=C(C(=O)N4)C#N)O)O + CC(=O)c1c(C)c2cnc(Nc3ccc(N4CCNCC4)cn3)nc2n(C2CCCC2)c1=O [Palbociclib] (partner 0.5 µM)
In short: as §1

Cell Line	relative viability (Ricolinostat + OSI-027; first compound 0.253 µM)	relative viability (Ricolinostat + OSI-027; first compound 0.8 µM)	relative viability (Ricolinostat + OSI-027; first compound 2.53 µM)	relative viability ([1]; first compound 0.08 µM)	relative viability ([1]; first compound 0.253 µM)	relative viability ([1]; first compound 0.8 µM)	relative viability ([1]; first compound 2.53 µM)	relative viability ([1]; first compound 8 µM)	relative viability (TGX 221 + Linsitinib; first compound 0.08 µM)	relative viability (TGX 221 + Linsitinib; first compound 0.253 µM)	relative viability (TGX 221 + Linsitinib; first compound 0.8 µM)	relative viability (TGX 221 + Linsitinib; first compound 2.53 µM)	relative viability (TGX 221 + Linsitinib; first compound 8 µM)	relative viability ([2]; first compound 0.08 µM)	relative viability ([2]; first compound 0.253 µM)	relative viability ([2]; first compound 0.8 µM)	relative viability ([2]; first compound 2.53 µM)	relative viability ([2]; first compound 8 µM)	relative viability (Ricolinostat + OSI-027; first compound 0.08 µM)
NCI-H3122	0.992	0.99	1.06	1.02	1.06	1.06	0.993	1.11	1.01	1.05	1	1.02	0.986	0.203	0.214	0.186	0.21	0.231	–
LC-2-ad	0.711	0.635	0.517	1	1.09	1.02	1	1.01	0.786	–	0.731	0.668	0.595	0.416	0.406	0.461	0.499	0.441	0.723
NCI-H1734	0.673	0.632	0.617	0.852	0.787	1.04	0.924	0.545	0.801	0.747	0.802	0.647	0.616	0.324	0.295	0.261	0.33	0.377	0.473
NCI-H1975	0.84	0.76	0.599	0.357	0.348	0.436	0.41	0.343	0.843	0.778	0.902	0.943	0.697	0.464	0.483	0.511	0.539	0.4	0.638
NCI-H1651	0.651	0.603	0.618	0.866	0.914	1.01	1.02	0.834	0.851	0.67	0.723	0.726	0.533	0.506	0.491	0.483	0.518	0.48	0.607
NCI-H1437	0.864	0.774	0.502	0.539	0.665	0.603	0.406	0.322	0.973	0.958	1.04	0.936	0.629	0.277	0.361	0.324	0.326	0.27	0.729
NCI-H647	0.508	0.489	0.543	1.01	1.16	1.09	0.919	0.649	0.915	0.948	1	0.749	0.611	–	0.387	0.392	0.346	0.22	0.546
LU99A	0.296	0.305	0.249	1.26	1.03	1.43	1.14	1	0.478	0.481	0.512	0.536	0.492	0.389	0.371	0.44	0.469	0.392	0.243
NCI-H661	0.669	0.712	0.652	1.05	0.71	0.697	0.678	0.718	0.486	0.472	0.363	0.457	0.362	0.426	0.419	0.392	0.394	0.391	0.501
NCI-H520	0.259	0.231	0.228	0.496	0.494	0.903	0.506	0.492	0.929	0.767	0.779	0.679	0.63	0.235	0.212	0.223	0.226	0.206	–
HCC-78	0.372	0.341	0.395	0.529	0.771	0.536	0.417	0.428	0.464	0.409	–	0.213	0.215	0.463	0.477	0.45	0.602	0.413	–
NCI-H1666	0.884	0.845	0.691	0.849	0.838	0.693	0.904	0.782	0.635	0.597	0.676	0.59	0.526	0.63	0.669	0.637	0.641	1.02	0.716
EKVX	0.714	–	0.677	0.879	0.998	1.03	1.02	0.917	0.756	0.851	0.727	0.715	0.637	0.312	0.365	0.512	0.793	0.334	0.6
HARA	0.479	0.401	0.175	–	–	1.25	1.03	1.13	1.05	0.853	0.883	0.766	0.754	0.228	0.211	0.218	0.234	0.279	0.295
A-427	0.435	0.414	0.351	0.963	1.05	1.02	1.03	1.06	1.05	1.02	1.1	1.12	1.02	0.551	0.535	0.504	0.553	0.543	–
NCI-H2087	0.603	0.545	0.45	0.609	1	0.796	0.833	0.899	1.07	1.05	1.16	1.03	0.94	0.223	0.228	0.199	0.256	0.205	–
NCI-H460	0.637	0.622	0.596	–	0.828	1.34	1.41	0.624	0.677	0.641	0.693	0.622	0.592	0.15	0.149	0.15	0.101	0.158	0.507
PC-14	0.72	0.769	0.511	0.801	0.81	0.812	1.07	0.88	0.95	0.866	0.898	0.904	0.874	0.496	0.56	0.537	0.574	0.34	0.728

Cell Line	relative viability (Ricolinostat + OSI-027; first compound 0.253 µM)	relative viability (Ricolinostat + OSI-027; first compound 0.8 µM)	relative viability (Ricolinostat + OSI-027; first compound 2.53 µM)	relative viability ([1]; first compound 0.08 µM)	relative viability ([1]; first compound 0.253 µM)	relative viability ([1]; first compound 0.8 µM)	relative viability ([1]; first compound 2.53 µM)	relative viability ([1]; first compound 8 µM)	relative viability (TGX 221 + Linsitinib; first compound 0.08 µM)	relative viability (TGX 221 + Linsitinib; first compound 0.253 µM)	relative viability (TGX 221 + Linsitinib; first compound 0.8 µM)	relative viability (TGX 221 + Linsitinib; first compound 2.53 µM)	relative viability (TGX 221 + Linsitinib; first compound 8 µM)	relative viability ([2]; first compound 0.08 µM)	relative viability ([2]; first compound 0.253 µM)	relative viability ([2]; first compound 0.8 µM)	relative viability ([2]; first compound 2.53 µM)	relative viability ([2]; first compound 8 µM)	relative viability (Ricolinostat + OSI-027; first compound 0.08 µM)
NCI-H2009	0.565	0.553	0.567	1.07	1.05	0.827	0.967	0.832	1.22	1.13	1.03	0.994	0.809	0.19	0.196	0.174	0.22	0.228	0.447
COR-L 105	0.641	0.72	0.731	0.767	0.78	0.819	0.779	0.58	0.986	0.828	1.02	0.537	0.554	0.431	0.403	0.419	0.401	0.42	–
NCI-H1993	0.532	0.648	0.466	1.03	1.08	1.08	1.14	0.979	0.806	0.774	0.701	0.641	0.735	0.702	0.674	0.716	0.631	0.607	–
SW 1573	0.612	0.647	0.501	0.823	1.02	1.12	1.04	0.88	0.686	0.747	0.685	0.768	0.544	0.366	0.378	0.447	0.396	0.321	0.588
BEN	0.344	0.324	0.307	0.578	0.789	0.944	0.892	0.676	0.869	0.839	0.878	0.823	0.774	0.582	0.514	0.481	0.474	0.507	0.287
RERF-LC-KJ	0.569	0.47	0.438	0.995	1.1	1.22	1.1	1.05	0.803	0.845	0.852	0.721	0.747	1.01	1.18	1.11	1.29	1.04	0.578
UMC-11	0.517	0.487	0.235	0.519	0.742	0.56	0.8	0.487	0.966	0.979	1.13	0.987	1.04	0.369	0.374	0.336	0.345	0.366	0.406
HOP-62	0.815	0.79	0.625	0.805	0.632	0.783	0.742	0.505	1.06	1.09	1.02	1.01	0.889	0.545	0.536	0.497	0.532	0.382	0.636
NCI-H2023	0.446	0.343	0.377	1.16	1.03	0.637	0.887	0.908	0.546	0.469	0.395	0.321	0.218	0.334	0.35	0.324	0.41	0.376	–
LOU-NH91	0.713	0.672	0.647	0.428	0.496	0.449	0.515	0.443	0.974	0.912	0.931	0.917	0.794	0.501	0.542	0.535	0.544	0.534	0.511
COR-L23	0.756	0.789	0.409	0.864	0.703	1.11	1.09	0.496	0.883	0.847	0.964	0.732	0.881	0.297	0.384	0.374	0.323	0.243	0.595
EPLC-272H	0.305	0.273	0.263	–	0.973	0.852	0.858	0.652	0.973	1.12	1.02	–	1.24	0.329	–	0.281	0.336	0.304	0.256
H3255	0.582	0.55	0.629	0.79	0.802	0.646	0.789	0.686	0.841	0.847	0.892	0.912	0.859	0.311	0.346	0.294	0.31	0.319	0.496
NCI-H650	0.585	0.503	0.374	0.583	0.833	0.772	0.936	0.617	0.732	0.885	0.779	0.772	0.713	0.305	0.357	0.329	0.273	0.344	0.405
NCI-H23	0.571	0.578	0.465	0.884	1.11	1.19	1.07	0.558	0.471	0.532	0.525	0.531	0.477	0.445	0.512	0.593	0.51	0.467	0.496
HCC-366	1.05	0.842	0.523	1.04	1.14	1.34	0.682	0.642	0.673	0.434	0.598	0.545	0.291	–	0.371	0.357	0.509	0.395	0.809
NCI-H2405	0.71	0.671	0.568	1.02	0.991	0.977	0.954	0.988	0.595	0.698	0.639	0.697	0.573	0.476	–	0.516	0.513	0.531	0.481
